Source: patent US20070264679A1, “Method for analyzing the activity of lipoxygenase using a water-soluble substrate” (Chungnam National University Industry Collaboration …, priority 2006, published 2007)

Key:
[1] = target: T1, LOX-1 (soybean lipoxygenase) (Glycine max, UniProt P08170); test: pH-dependent oxygenation by LOX, initial velocity of absorbance at 234 nm; assay type: biochemical; settings: substrate 100 μM; for LOX activity on various pH conditions: 30 sec, 25° C.
T1 construct: purchased Sigma-Aldrich Corp (St. Louis, Mo., USA) lipoxidase Type I-B
T1 sequence (P08170 1-839): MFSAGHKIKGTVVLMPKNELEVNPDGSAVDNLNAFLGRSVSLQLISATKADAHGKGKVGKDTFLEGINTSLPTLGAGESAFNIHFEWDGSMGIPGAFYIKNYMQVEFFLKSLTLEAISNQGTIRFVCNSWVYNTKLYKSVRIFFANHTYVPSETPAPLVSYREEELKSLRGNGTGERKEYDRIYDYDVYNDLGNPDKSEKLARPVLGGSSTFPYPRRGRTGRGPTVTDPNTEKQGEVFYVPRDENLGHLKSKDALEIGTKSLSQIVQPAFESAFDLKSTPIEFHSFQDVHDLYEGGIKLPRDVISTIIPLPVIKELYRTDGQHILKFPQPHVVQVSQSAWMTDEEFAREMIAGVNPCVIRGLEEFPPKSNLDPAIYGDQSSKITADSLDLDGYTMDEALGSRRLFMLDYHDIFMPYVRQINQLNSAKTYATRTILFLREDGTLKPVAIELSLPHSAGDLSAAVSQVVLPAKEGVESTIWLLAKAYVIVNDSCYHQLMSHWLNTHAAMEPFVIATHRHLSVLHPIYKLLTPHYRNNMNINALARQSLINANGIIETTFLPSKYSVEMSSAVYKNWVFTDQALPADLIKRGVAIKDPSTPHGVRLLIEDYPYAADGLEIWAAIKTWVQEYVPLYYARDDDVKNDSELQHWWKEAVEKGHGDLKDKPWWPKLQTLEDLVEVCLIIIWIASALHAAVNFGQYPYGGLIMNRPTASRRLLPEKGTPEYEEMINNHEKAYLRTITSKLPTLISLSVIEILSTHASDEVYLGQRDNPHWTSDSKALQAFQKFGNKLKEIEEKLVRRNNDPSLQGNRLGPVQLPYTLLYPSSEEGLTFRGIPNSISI
Experimental: FIG. 7 is an absorbance-pH graph showing the effect of pH on the rate of LOX-1-catalyzed oxygenation of linoleoyl-lysoPC where LOX-1 (0.02 units/ml) was incubated with 100 μM of linoleoyl-lysoPC (▪), 100 μM of sodium linoleate (●) or 250 μM of soybean LPC (▴) in buffers of various pHs; 200 mM phosphate (pH 6-8), 50 mM borax (pH 8.5-9.5) and 300 mM sodium bicarbonate (pH 10-11).
LOX-1 (0.02 units/ml) was incubated with linoleoyl-lysoPC (100 μM) in 500 μl of buffers of various pHs (pH 6.0-11) at 25° C. as described before (Began et al, Biochemistry 38 (1999) 13920-13927); 200 mM phosphate (pH 6-8), 50 mM borax (pH 8.5-9.5), 300 mM sodium bicarbonate (pH 10-11). Separately, the oxygenation was started by including LOX-1 (0.02 units/ml) in the reaction mixture containing sodium linoleate (100 μM) in the presence of Tween 20 (25 μM). […]
LO (840 units/ml Sigma, Saint Louis, Mo., USA) was incubated with 1-linoleoyl-lysophosphatidylcholine (100 μM) in 0.5 ml of buffers of various pHs (pH 6.0-11) as shown in Table 4 for 30 sec at 25° C.

Porcine leukocyte LOX = target: T2, Porcine leukocyte LOX (Sus scrofa, UniProt P16469); test: Kinetics of oxygenation of linoleoylated substrates by leukocyte LOX; assay type: biochemical; settings: porcine leukocyte LOX 1.5 units/ml, 100 mM phosphate buffer pH 7.5, 5 mM EDTA; for Vm: 0.03% Tween 20; for Km: substrate 3-100 μM, 0.03% Tween 20, 25° C.
T2 construct: purchased Cayman Chemical Co. (Ann Arbor, Mich., USA)
T2 sequence (P16469 1-663): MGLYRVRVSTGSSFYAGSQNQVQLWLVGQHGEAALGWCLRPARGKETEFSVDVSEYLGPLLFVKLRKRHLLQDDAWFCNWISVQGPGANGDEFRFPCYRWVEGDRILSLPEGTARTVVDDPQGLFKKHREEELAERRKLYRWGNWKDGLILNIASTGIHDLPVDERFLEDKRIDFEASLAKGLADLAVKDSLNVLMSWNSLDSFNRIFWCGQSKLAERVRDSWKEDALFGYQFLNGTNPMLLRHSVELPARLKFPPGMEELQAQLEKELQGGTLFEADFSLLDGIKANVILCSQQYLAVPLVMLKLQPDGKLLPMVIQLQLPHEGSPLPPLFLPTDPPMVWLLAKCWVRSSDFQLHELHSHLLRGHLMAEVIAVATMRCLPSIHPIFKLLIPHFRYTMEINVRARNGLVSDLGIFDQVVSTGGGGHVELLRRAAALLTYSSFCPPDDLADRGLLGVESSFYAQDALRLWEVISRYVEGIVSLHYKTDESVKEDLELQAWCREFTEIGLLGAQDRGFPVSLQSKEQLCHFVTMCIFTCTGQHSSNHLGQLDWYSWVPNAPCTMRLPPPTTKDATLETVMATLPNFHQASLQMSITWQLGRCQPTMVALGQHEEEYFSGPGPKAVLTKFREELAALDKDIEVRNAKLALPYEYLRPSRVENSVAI
Source text: Data were expressed as means ±S.D. of results from at least three independent experiments.

Compound	optimal pH range for oxygenation by LOX-1 ([1]; LOX-1 0.02 units/ml, pH 6-11)	LOX activity on various pH conditions ([1]; pH 6)	LOX activity on various pH conditions ([1]; pH 7)	LOX activity on various pH conditions ([1]; pH 7.5)	LOX activity on various pH conditions ([1]; pH 8)	LOX activity on various pH conditions ([1]; pH 8.5)	LOX activity on various pH conditions ([1]; pH 9)	LOX activity on various pH conditions ([1]; pH 10)	LOX activity on various pH conditions ([1]; pH 11)	Vm (Porcine leukocyte LOX)	Km (Porcine leukocyte LOX)	LOX activity on various pH conditions ([1]; pH 6.5)	LOX activity on various pH conditions ([1]; pH 9.5)	LOX activity on various pH conditions ([1]; pH 10.5)
CCCCC/C=C\C/C=C\CCCCCCCC(=O)OCC(O)COP(=O)([O-])OCC[N+](C)(C)C (centres unmarked) [Linoleoyl-lysoPC, 1-linoleoyl Lysophosphatidylcholine]	about 9	◯	◯	◯	◯	◯	◯	◯	◯	14.42 ± 0.78 units/mg	15.1 ± 1.34 µM			
CCCCC/C=C\C/C=C\CCCCCCCC(=O)O [Linoleic acid, linoleic acid]			◯	◯	◯	◯	◯	◯	◯	32.7 ± 1.93 units/mg	31.2 ± 4.6 µM	◯	◯	◯
